In patent US6706747B2, “Conformationally rigid bicyclic and adamantane derivatives useful as α2-adrenergic blocking agents” (Allergan, Inc., priority 1994, dated 2004):

What was measured:
α1 = experiment: Radioligand binding, [3H]prazosin, human cerebral cortex (HCC) membranes; settings: 22° C., 30 minutes
Procedure: (§1) Tissue preparation: Membrane suspensions were prepared from human cerebral cortex (HCC) obtained from the UCI Organ and Tissue Bank and rat kidney cortex (RKC). Briefly, tissues (1 g) were homogenized in 25 ml of iced-cold 5 mM tris, pH 7.4 with a Polytron homogenizer for 30 secs at setting# 7, and centrifuged for. 10-12 minutes at 300×g at 4° C. The supernatant was filtered: through 2 layers of gauze and diluted 1:2 with 50 mM Tris-HCI buffer, pH 7.4, then centrifuged at 49,000×g for 20 minutes. The pellet fraction was washed 3 times (resuspended in Tris-HCl buffer and centrifuged for 20 minutes at 49,000×g). The pellet was then stored at −80° C. until the binding assay.
Binding studies: The radioligands [^3H]rauwolscine (specific activity 80 Ci/mmol) and [^3H]prazosin (specific activity 76 Ci/mmol) were obtained from New England Nuclear, Boston, Mass. Frozen membrane pellet was resuspended in 25 mM glycine/glycine, pH 7.4 and incubated with radioligand under the following conditions: CHO—C10, CHO—RNG, HT-29-[^3H]rauwolscine, 22° C., 30 minutes; RKC-[^3H]rauwolscine, 0° C., 120 minutes; and, HCC-[^3H]prazosin, 22° C., 30 minutes in a final volume of 500 μl. At the end of the incubation period, the samples were filtered through glass fiber filters (Whatman GF/B) in a 96 well cell harvester and rapidly washed four times with 4 ml of ice-cold 50 mM, Tris-HCl buffer. The filters were then oven dried and transferred to scintillation vials containing 5 ml of Beckman's Ready Protein® scintillation cocktail for counting. […] Protein concentrations were determined with a protein assay kit from Bio Rad. Binding isotherms, equilibrium dissociation and affinity constants were analyzed and determined by the non-linear least squares curve fitting programs AccuFit Competition/Saturation by Beckman.
Frozen membrane pellet was resuspended either 50 mM tris, 2 mM EGTA, 1 mM MgCl2, pH7.5 (RbKC, RbICB-[^3H]brimonidine); 50 mM tris, 0.5 mM EDTA, 5 mM NaCl, pH 7.7 (RbICB-[^3H]rauwolscine); 25 mM glycine/glycine, pH 7.4 (RtKC, CHO—C10, CH—RNG, HT-29, HCC) or 50 mM tris, 0.1 mM MnCl2, pH7.7 (RtCC). Membrane protein homogenate (75-200 μg) was incubated with radioligand under the following conditions: RbKC and RbICB-[^3H]rauwolscine, 22° C., 45 minutes; RtCC and RbICB-[^3H]brimondine, 22° C., 90 minutes; CHO—C10, CHO—RNG and HT-29-[^3H]rauwolscine, 22° C., 30 minutes; HCC—[^3H]prazosin, 22° C., 30 minutes; and, in a final volume of 250 or 500 μl. At the end of the incubation period, the samples were filtered through glass fiber filters (Whatman GF/B) in a 24 or 96 well cell harvester and rapidly washed four times with 4 mls of iced-cold 50 mM Tris-HCl buffer. The filters were then oven dried and transferred to scintillation vials containing 10 mls of, Beckman's Ready Protein® scintillation cocktail for counting. […] Protein concentrations were determined with a protein assay kit from Bio Rad. Binding isotherms, equilibrium dissociation and affinity constants were analyzed and determined by the non-linear least squares curve fitting programs EBDA (BioSoft) or AccuFit Competition/Saturation by Beckman.
The radioligands [^3H]rauwolscine (specific activity 80 Ci/mmol) and [^3H]prazosin (specific activity 76 Ci/mmol) were obtained from New England Nuclear, Boston, Mass. Frozen membrane pellet was resuspended in 25 mM glycine/glycine, pH 7.4 and incubated with radioligand under the following conditions: CHO—C10, CHO—RNG-[^3H]rauwolscine, 22° C., 30 minutes; and, HCC—[^3H]prazosin, 22° C., 30 minutes in a final volume of 500 ul.

Rat Kidney Cortex (α2AB) = molecular target: T1, Rat Kidney Cortex (α2AB) (Rattus norvegicus, UniProt P19328); experiment: Radioligand binding, [3H]rauwolscine, rat kidney cortex (RKC) membranes; settings: values marked †: rat kidney cortex, 0° C., 120 minutes, read-out: Ki (nM) α2B (RKC)†
T1 construct: Membrane suspensions were prepared from human cerebral cortex (HCC) obtained from the UCI Organ and Tissue Bank and rat kidney cortex (RKC); from tissue; host or cells: rat kidney cortex
T1 sequence (P19328 1-453): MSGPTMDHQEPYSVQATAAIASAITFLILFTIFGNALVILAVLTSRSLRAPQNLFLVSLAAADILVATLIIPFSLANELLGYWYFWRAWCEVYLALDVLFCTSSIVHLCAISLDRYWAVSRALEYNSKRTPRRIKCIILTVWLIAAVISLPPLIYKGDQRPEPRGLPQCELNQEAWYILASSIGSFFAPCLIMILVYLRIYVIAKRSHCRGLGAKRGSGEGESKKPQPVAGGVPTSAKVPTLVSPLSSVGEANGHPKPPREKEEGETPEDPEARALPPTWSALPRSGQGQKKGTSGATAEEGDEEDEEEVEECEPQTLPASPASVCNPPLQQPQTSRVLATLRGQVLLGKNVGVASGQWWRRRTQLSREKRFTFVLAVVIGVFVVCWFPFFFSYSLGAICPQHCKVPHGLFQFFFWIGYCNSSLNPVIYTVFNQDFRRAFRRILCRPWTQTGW
Procedure: as §1
Binding studies: The radioligands [^3H]rauwolscine (specific activity 80 Ci/mmol) and [^3H]prazosin (specific activity 76 Ci/mmol) were obtained from New England Nuclear, Boston, Mass. Frozen membrane pellet was resuspended in 25 mM glycine/glycine, pH 7.4 and incubated with radioligand under the following conditions: CHO—C10, CHO—RNG, HT-29-[^3H]rauwolscine, 22° C., 30 minutes; RKC-[^3H]rauwolscine, 0° C., 120 minutes; and, HCC-[^3H]prazosin, 22° C., 30 minutes in a final volume of 500 μl. At the end of the incubation period, the samples were filtered through glass fiber filters (Whatman GF/B) in a 96 well cell harvester and rapidly washed four times with 4 ml of ice-cold 50 mM, Tris-HCl buffer. The filters were then oven dried and transferred to scintillation vials containing 5 ml of Beckman's Ready Protein® scintillation cocktail for counting. Specific binding defined by 10 μM phentolamine for competition studies were as follows: 0.3 nM [^3H]rauwolscine—CHO—C10 99%; 0.4 nM[^3H]rauwolscine —CHO—RNG 99%; 0.7;nM [^3H]rauwolscine—HT-29 90%; 1 nm [^3]rauwolscine—RKC 92%, and 0.3 nM [^3H]prazosin—HCC 87%. Protein concentrations were determined with a protein assay kit from Bio Rad. Binding isotherms, equilibrium dissociation and affinity constants were analyzed and determined by the non-linear least squares curve fitting programs AccuFit Competition/Saturation by Beckman.

Question: With `CCCCNC1=NCCO1` as the molecule, how does the Ki (α1) read?
Answer: > 100000 nM

Question: What about the Ki (Rat Kidney Cortex (α2AB)) of the same molecule?
Answer: 317 nM

Question: For `CCCCC1C2CCC(C2)C1NC1=NCCS1` (stereo not shown), which Ki (α1) is on record?
Answer: 42000 nM

Question: What about the Ki (Rat Kidney Cortex (α2AB)) of the same molecule?
Answer: 167 nM

Question: What does the source list for `CC(C)C1C2CCC(C2)C1NC1=NCCO1` (stereo not shown)?
Answer: Ki (α1): > 10000 nM; Ki (Rat Kidney Cortex (α2AB)): 58 nM

Question: How did the Ki (α1) turn out when `C1CCC(C2C3CCC(C3)C2NC2=NCCN2)CC1` (stereo not shown) was run?
Answer: 17200 nM

Question: What about the Ki (Rat Kidney Cortex (α2AB)) of the same molecule?
Answer: 5100 nM

Question: Which results are given for `CCCCC1C2CCC(C2)C1NC1=NCCO1` (stereo not shown)?
Answer: Ki (α1): 5820 nM; Ki (Rat Kidney Cortex (α2AB)): 59 nM
